“Also recorded” adds a separate entry of the source.
Columns and labels:
[1] = test system: Ser137 of DARPP-32 (CK1 site); assay: DARPP-32 phospho-Ser137 immunoblot in neostriatal slices; type: cell-based, mouse
Description: (§1) Neostriatal slices were prepared from male C57/BL6 mice (6–8 weeks old) in accordance with methods known in the art (Nishi, A. et al. 1997, J. Neurosci. 17:8147–8155). Slices were treated with a drug. After drug treatment, slices were immediately frozen in liquid nitrogen, and stored at −80° C. until assayed.
Frozen slices were sonicated in hot homogenization buffer containing 1% SDS and 50 mM NaF, and samples were boiled for 10 minutes. SDS-PAGE sample buffer was then added and samples were boiled for 5 minutes. Samples (approximately 120 μg of total protein) were separated by SDS-PAGE (10% polyacrylamide) and then transferred to nitrocellulose. In most studies, immunoblots were first probed with anti-phospho-Ser137 DARPP-32 antibody. The blots were then stripped and probed with anti-phospho-Thr75 DARPP-32 antibody. Blots were stripped again and probed with anti-total DARPP-32 antibody. […] Chemiluminescence was detected by autoradiography and bands were quantified by analysis of scanned images using NIH IMAGE 1.52 software. Data were statistically analyzed by Student's t test in Microsoft EXCEL™ software as indicated.
Neostriatal slices were prepared from male C57/BL6 mice (6–8 weeks old) as disclosed (22). Slices were treated with drugs as specified in the text and figure legends. After drug treatment, slices were immediately frozen in liquid nitrogen, and stored at −80° C. until assayed.
Frozen slices were sonicated in hot homogenization buffer containing 1% SDS and 50 mM NaF, and samples were boiled for 10 min. SDS-PAGE sample buffer was then added and samples were boiled for 5 min. Samples (approximately 120 μg protein) were separated by SDS-PAGE (10% polyacrylamide) and transferred to nitrocellulose. Immunoblots were first probed with antiphospho-Ser-137 DARPP-32 antibody. The blots were stripped and probed with anti-phosphoThr-75 DARPP-32 antibody. Blots were stripped again and probed with anti-total DARPP-32 antibody. Antibody binding was detected by enhanced chemiluminescence (ECL) using X-ray film, and images were analyzed by laser scanning densitometry using NIH Image 1.52 software. Data were statistically analyzed by Student's t-test using Microsoft EXCEL™ software as indicated.

Cdk5 = Cdk5 kinase activity immunoprecipitated from neostriatal slices, histone H-1 as substrate; type: cell-based, mouse
Description: as §1
For Cdk5 immunoprecipitation, striatal tissue slices (approximately 150 μg total protein) were lysed using a Dounce homogenizer and 1 ml of lysis buffer (150 mM NaCl, 20 mM Tris-HCl (pH 7.4), 1 mM EDTA, 0.5% NP-40, 5 mM NaF, 5 mM Na3PO4 and protease inhibitors). Lysates were centrifuged at 10,000 g for 10 minutes at 4° C. Supernatants were pre-cleared by adding rabbit IgG-conjugated agarose for 40 minutes at 4° C. Ten μl of Cdk5 antibody conjugated to agarose were added and samples were incubated for 1 hour at 4° C. with mixing. Agarose pellets were collected and washed three times with 1 ml of lysis buffer and two times with kinase assay buffer (50 mM Hepes (pH 7.5), 10 mM MgCl2, 1 mM DTT). Cdk5 kinase assays were performed in a 30-μl reaction mixtures with 2 μg Histone H-1, 500 μM ATP and 5 μCi of γ-^32P-ATP. Samples were incubated at 30° C. for 10 minutes, reactions were stopped by addition of SDS-sample buffer, and samples were boiled for 5 minutes. Samples were separated by SDS-PAGE and analyzed as disclosed above for CKI assays. Data were analyzed by Student's t-test in Microsoft Excel software as indicated, with significance defined as p<0.05.
CK1 assays were performed in a 30 μl assay volume with 2 μg of purified DARPP-32, 500 μM ATP and 5 μCi γ-^32P-ATP. Reactions were started by addition of the ATP. Samples were incubated at 30° C. for 10 min and reactions were stopped by addition of SDS-sample buffer and boiled for 5 min. Samples were separated by SDS-PAGE (12% polyacrylamide). SDS-PAGE gels were dried and exposed to Kodak film for autoradiography. Results were quantified using a Molecular Dynamics PHOSPHORIMAGER™. Immunoprecipitation and assay of Cdk5 were performed as disclosed (20).

## NCCNS(=O)(=O)c1ccc(Cl)c2ccncc12 [CKI-7]
[1]; 50 μM CKI-7, 30 min before DHPG 2 min
  effect on basal or DHPG-stimulated DARPP-32 phosphorylation at Ser137: little effect
[1]; CKI-7 100 to 300 μM, 30 min before DHPG 2 min
  effect on basal and DHPG-stimulated DARPP-32 phosphorylation at Ser137: dose-dependent decreases
Cdk5; CKI-7 dose-dependent, U73122 10 μM, BAPTA/AM 20 μM, cyclosporin A 5 μM
  effect of pretreatment on the effect of DHPG on Cdk5 kinase activity: attenuated

## N[C@H](C(=O)O)c1cc(O)cc(O)c1 [DHPG, (S)-3,5-Dihydroxyphenylglycine]
[1]; DHPG 100 μM, group I mGluR activation
  increase in phosphorylation of Ser137: 2–3 fold
[1]; DHPG 100 μM, back to basal level by 5 minutes
  time of peak level of phosphorylation of Ser137: 2 min
[1]; slices treated with drug alone: DHPG 100 μM, ionomycin 2 μM
  effect on phosphorylation of Ser137 in DARPP-32: rapid but transient increase
Cdk5; DHPG treatment of slices
  effect on Cdk5 kinase activity: rapid but transient increase; also recorded: increased
Cdk5; DHPG, after 2 minutes, back to basal level after 5 minutes
  increase in Cdk5 activity: approximately 4 fold

From patent publication US7129073B2, “Regulation of neuronal function through metabotropic glutamate receptor signaling pathways” (The Rockefeller University, priority 2001, dated 2006)
